Values of other authors as cited in patent US6369001B1, “Microemulsion coformulation of a graminicide and a water-soluble herbicide” (Monsanto Technology, LLC, priority 1999, dated 2002).
Entries after “also recorded” stand apart in the source; their conditions may differ.

Conditions: aqueous medium

| SMILES | pH dependence of chemical stability / hydrolysis in water |
| --- | --- |
| COC(=O)C(C)Oc1ccc(Oc2ccc(Cl)cc2Cl)cc1 (stereo not drawn) [diclofop-methyl] | undergoes hydrolysis more readily in an alkaline medium |
| CCOC(=O)[C@@H](C)Oc1ccc(Oc2cnc3cc(Cl)ccc3n2)cc1 [quizalofop-P-ethyl] | hydrolysis occurring most rapidly when pH is in the alkaline range; also recorded: greater chemical stability in acid to neutral than in alkaline media |
| CCO/N=C(\CC)C1=C(O)CC(c2c(C)cc(C)cc2C)CC1=O (stereo not drawn) [tralkoxydim] | especially unstable in an acid medium; also recorded: much more stable at pH 9 than at pH 5 |
